From patent publication US9051304B2, “Carboxamide compounds and their use as calpain inhibitors V” (AbbVie Deutschland GmbH & Co. KG, priority 2009, dated 2015) come the findings set out here.

The target of series [1] is T1, calpain-I isolated from human erythrocytes (Homo sapiens, UniProt P07384).
T1 construct: calpain-I—isolated from human erythrocytes; purchased Calbiochem 208713; host or cells: human erythrocytes (tissue isolate)
T1 sequence (P07384 1-714): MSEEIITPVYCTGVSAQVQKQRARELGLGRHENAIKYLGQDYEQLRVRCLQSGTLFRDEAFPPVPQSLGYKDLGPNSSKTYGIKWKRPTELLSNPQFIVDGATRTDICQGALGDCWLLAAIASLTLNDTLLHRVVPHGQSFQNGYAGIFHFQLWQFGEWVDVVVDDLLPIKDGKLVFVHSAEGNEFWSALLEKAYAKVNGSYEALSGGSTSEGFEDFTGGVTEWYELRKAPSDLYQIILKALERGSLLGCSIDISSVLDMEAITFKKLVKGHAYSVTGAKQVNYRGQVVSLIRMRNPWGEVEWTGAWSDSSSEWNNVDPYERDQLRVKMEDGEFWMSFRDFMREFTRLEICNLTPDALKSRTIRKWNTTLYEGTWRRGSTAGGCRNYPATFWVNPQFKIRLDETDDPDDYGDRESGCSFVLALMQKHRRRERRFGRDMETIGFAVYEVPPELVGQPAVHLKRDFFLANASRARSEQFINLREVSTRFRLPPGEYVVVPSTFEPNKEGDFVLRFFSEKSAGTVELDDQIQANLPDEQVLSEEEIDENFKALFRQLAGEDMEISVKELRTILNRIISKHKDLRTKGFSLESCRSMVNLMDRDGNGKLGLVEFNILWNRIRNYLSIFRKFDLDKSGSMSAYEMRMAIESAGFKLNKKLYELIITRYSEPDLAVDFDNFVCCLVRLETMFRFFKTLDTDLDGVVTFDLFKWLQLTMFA
T1 sequence (P04632 1-268 partner): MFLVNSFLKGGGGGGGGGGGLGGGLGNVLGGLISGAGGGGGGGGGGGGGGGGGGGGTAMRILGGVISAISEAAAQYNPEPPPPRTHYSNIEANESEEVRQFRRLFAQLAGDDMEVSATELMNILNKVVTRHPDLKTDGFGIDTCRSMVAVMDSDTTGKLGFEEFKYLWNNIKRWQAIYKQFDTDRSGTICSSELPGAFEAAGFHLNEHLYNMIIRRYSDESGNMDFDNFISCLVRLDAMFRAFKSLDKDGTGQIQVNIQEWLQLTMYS
The series is described as follows: Calpain I enzyme inhibition, kinetic fluorescence assay. As to conditions: apparent Ki from IC50 by Cheng-Prussoff; human erythrocyte calpain-I. In kind it is biochemical. The procedure: (§1) I Enzyme Inhibition in vitro:
(§2) Testing for blockade of the corresponding enzymic activities was carried out by means of kinetic fluorescence assays (excitation 390 nm, emission 460 nm).
(§3) Apparent Ki values were calculated from the experimentally determined IC50 values by the Cheng-Prussoff relation assuming a reversible competitive enzyme inhibition.
20 nM calpain-I—isolated from human erythrocytes (Calbiochem #208713), 100 μM Suc-Leu-Tyr-AMC (Bachem #I-1355) as substrate in buffer with 62 mM imidazole, 0.3 mM CaCl2, 0.10% CHAPS, 0.05% BSA, 1 mM DTT at pH 7.3 and room temperature.

The target of series [2] is T2, cathepsin B isolated from human liver (Homo sapiens, UniProt P07858).
T2 construct: cathepsin B—isolated from human liver; purchased Calbiochem 219362; host or cells: human liver (tissue isolate)
Briefly: Cathepsin B enzyme inhibition, kinetic fluorescence assay. Particulars: selectivity ratio vs calpain. In kind it is biochemical. The procedure:
as §1, §2, §3
0.25 nM cathepsin B—isolated from human liver (Calbiochem #219362), 100 μM Z-Phe-Arg-AMC (Bachem #I-1160) as substrate 50 mM MES, 2 mM EDTA, 0.05% Brij 35, 2.5 mM L-cysteine, pH 6.0, room temperature.

In series [3] the target is T3, cathepsin K activated from recombinant human procathepsin K (Homo sapiens, UniProt P43235).
T3 construct: purchased Calbiochem 342001; host or cells: E. coli
T3 sequence (P43235 115-329): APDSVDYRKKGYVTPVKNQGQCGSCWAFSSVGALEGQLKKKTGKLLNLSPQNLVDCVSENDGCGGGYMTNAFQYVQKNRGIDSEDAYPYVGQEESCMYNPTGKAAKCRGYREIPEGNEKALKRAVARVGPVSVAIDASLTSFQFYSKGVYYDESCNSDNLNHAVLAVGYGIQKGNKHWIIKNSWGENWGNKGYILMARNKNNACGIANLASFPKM
Briefly: Cathepsin K enzyme inhibition, kinetic fluorescence assay. It counts as biochemical. As to conditions: selectivity ratio vs calpain. How it is done:
as §1, §2, §3
3 nM cathepsin K—activated from recombinant human procathepsin K from E. coli (Calbiochem #342001), 10 μM Z-Gly-Pro-Arg-AMC (Biomol #P-142) as substrate in 50 mM MES, 2 mM EDTA, 0.05% Brij 35, 2.5 mM L-cysteine, pH 6.0, room temperature.

For series [4], the target named is T4, cathepsin L isolated from human liver (Homo sapiens, UniProt P07711).
T4 construct: cathepsin L—isolated from human liver; purchased Calbiochem 219402; host or cells: human liver (tissue isolate)
T4 sequence (P07711 114-333): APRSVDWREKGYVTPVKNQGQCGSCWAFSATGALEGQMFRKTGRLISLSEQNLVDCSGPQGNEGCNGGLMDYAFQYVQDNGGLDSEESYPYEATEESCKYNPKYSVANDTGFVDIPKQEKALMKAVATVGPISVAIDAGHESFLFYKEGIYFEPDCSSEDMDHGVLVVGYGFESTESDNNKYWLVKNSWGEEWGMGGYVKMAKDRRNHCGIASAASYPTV
The series is described as follows: Cathepsin L enzyme inhibition, kinetic fluorescence assay. In kind it is biochemical. Particulars: selectivity ratio vs calpain. The procedure:
as §1, §2, §3
1 nM cathepsin L—isolated from human liver (Calbiochem #219402), 2 μM Z-Phe-Arg-AMC (Bachem #I-1160) as substrate in 50 mM MES, 2 mM EDTA, 0.05% Brij 35, 2.5 mM L-cysteine, pH 6.0, room temperature.

Series [5] has as its target T5, recombinant human cathepsin S (Homo sapiens, UniProt P25774).
T5 construct: purchased Calbiochem 219343; host or cells: E. coli
Briefly: Cathepsin S enzyme inhibition, kinetic fluorescence assay. As to conditions: selectivity ratio vs calpain. It counts as biochemical. The procedure: as §1, §2, §3
0.5 nM recombinant human cathepsin S from E. coli (Calbiochem #219343), 20 μM Z-Val-Val-Arg-AMC (Bachem #I-1540) as substrate in 50 mM MES, 2 mM EDTA, 0.05% Brij 35, 2.5 mM L-cysteine, pH 6.0, room temperature.

The nature of series [6]: Cytosolic clearance in human liver cytosol. In kind it is in vitro ADME. As to conditions: 0.5 μM compound, 1 mg/ml human liver cytosol, 37° C., pH 7.5; read-out: human cytCL (cytosolic clearance). The procedure: (§4) III Assay for Determining Cytosolic Clearance of Compounds of Formula I: […]
(§5) For comparison purposes data measured with human liver cytosol were contrasted with those obtained with cynomolgus monkey liver cytosol.
(§6) 0.5 μM of a compound to be tested was incubated with 1 mg/ml of human liver cytosol as well as monkey liver cytosol at 37° C. in 0.5 M of phosphate buffer at pH 7.5 while shaking (commercial sources: female cynomolgus liver cytosol from Tebu bio, human liver cytosol from BDgentest).
(§7) In each case aliquots of 65 μl were taken after 0, 5, 10 and 15 min and transferred into wells of a wellplate which were immediately filled with 130 μl of ethanol to stop the reaction. The samples were kept frozen until analysis on a LC/MS/MS system (Applied Biosystems SCIEX 4000).
(§8) Read out parameters were the loss of parent compounds, from which the half life periods (T1/2) were calculated from.
(§9) To assess the stability of the compounds tested the clearance ranges were adjusted to the hepatic plasma flow of the different species according to the following scheme:
(§10) stable=from 0 to about ⅓ of the hepatic plasma flow;
(§11) moderately stable=from about ⅓ to about ⅔ of the hepatic plasma flow;
(§12) instable=more than ⅔ of the hepatic plasma flow.
(§13) Based on this adjustment the following qualifiers were assigned to evaluate the cytosolic stabilities of the compounds tested: […]

Series [7] in a line: Cytosolic clearance in cynomolgus monkey liver cytosol. In kind it is in vitro ADME. Particulars: female; 0.5 μM compound, 1 mg/ml cynomolgus monkey liver cytosol, 37° C., pH 7.5; read-out: cyno cytCL (cytosolic clearance). How it is done: as §4, §5, §6, §7, §8, §9, §10, §11, §12, §13

T5 sequence (P25774 115-331): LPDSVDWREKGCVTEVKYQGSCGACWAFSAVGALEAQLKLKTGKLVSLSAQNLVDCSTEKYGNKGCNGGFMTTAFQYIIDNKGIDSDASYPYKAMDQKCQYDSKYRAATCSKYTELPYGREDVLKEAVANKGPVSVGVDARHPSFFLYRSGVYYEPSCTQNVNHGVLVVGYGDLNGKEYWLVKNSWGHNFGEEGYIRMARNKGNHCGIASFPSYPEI

`CCONC(=O)C(=O)C(Cc1ccc(OC)cc1)NC(=O)c1cccnc1-n1ccc(-c2ccccc2)n1` (centres unmarked) [Example 24, N-[4-(Ethoxyamino)-1-(4-methoxyphenyl)-3,4-dioxo-2-butanyl]-2-(3-phenyl-1H-pyrazol-1-yl)nicotinamid]: in series [1], the Ki is below 200 nM. Moreover, the “Sel cat. B (Ki(cathepsin B)/Ki(calpain) ratio)” value in series [2] is given as “++ (++ means 4<Ki(cathepsin B)/Ki(calpain)≦10)”. In addition, in series [3], the “Sel cat. K (Ki(cathepsin K)/Ki(calpain) ratio)” value is “+ (+ means 2≦Ki(cathepsin K)/Ki(calpain)≦4)”. The “Sel cat. L (Ki(cathepsin L)/Ki(calpain) ratio)” value in series [4] was “++ (++ means 10<Ki(cathepsin L)/Ki(calpain)≦50)”. Moreover, the “Sel cat. S (Ki(cathepsin S)/Ki(calpain) ratio)” value in series [5] is reported as “++ (++ means 10<Ki(cathepsin S)/Ki(calpain)≦50)”.
In the case of `CCONC(=O)C(=O)C(Cc1ccccc1)NC(=O)c1cccnc1-n1ccc(-c2ccccc2)n1` (centres unmarked) [Example 7, N-(4-(Ethoxyamino)-3,4-dioxo-1-phenylbutan-2-yl)-2-(3-phenyl-1H-pyrazol-1-yl)nicotinamide], the Ki in series [1] was below 200 nM. For the same compound, the “Sel cat. B (Ki(cathepsin B)/Ki(calpain) ratio)” value in series [2] is “++ (++ means 4<Ki(cathepsin B)/Ki(calpain)≦10)”. Besides, in series [3], the “Sel cat. K (Ki(cathepsin K)/Ki(calpain) ratio)” value was “+ (+ means 2≦Ki(cathepsin K)/Ki(calpain)≦4)”. In series [4], the “Sel cat. L (Ki(cathepsin L)/Ki(calpain) ratio)” value is “++ (++ means 10<Ki(cathepsin L)/Ki(calpain)≦50)”. In addition, the “Sel cat. S (Ki(cathepsin S)/Ki(calpain) ratio)” value in series [5] is recorded as “+++ (+++ means a Ki(cathepsin S)/Ki(calpain) ratio of >50)”. Further, the cytosolic intrinsic clearance at 0.5 μM was below 14 µL/min/mg in series [6] and below 18 µL/min/mg in series [7].
`CONC(=O)C(=O)C(Cc1ccccc1)NC(=O)c1cccnc1-n1cc(Cl)c(-c2ccccc2)n1` (centres unmarked) [Example 10, 2-(4-Chloro-3-phenyl-1H-pyrazol-1-yl)-N-(4-(methoxyamino)-3,4-dioxo-1-phenylbutan-2-yl)nicotinamide]: the Ki in series [1] fell in the range of 300 to 600 nM. Moreover, the “Sel cat. B (Ki(cathepsin B)/Ki(calpain) ratio)” value in series [2] is recorded as “∘”. Moreover, in series [3], the “Sel cat. K (Ki(cathepsin K)/Ki(calpain) ratio)” value is on record as “+ (+ means 2≦Ki(cathepsin K)/Ki(calpain)≦4)”. Also, the “Sel cat. L (Ki(cathepsin L)/Ki(calpain) ratio)” value in series [4] is recorded as “++ (++ means 10<Ki(cathepsin L)/Ki(calpain)≦50)”. Moreover, the “Sel cat. S (Ki(cathepsin S)/Ki(calpain) ratio)” value in series [5] is given as “++ (++ means 10<Ki(cathepsin S)/Ki(calpain)≦50)”.
For `CC(C)(C)ONC(=O)C(=O)C(Cc1ccccc1)NC(=O)c1cccnc1-n1ccc(-c2ccccc2)n1` (centres unmarked) [Example 16, N-(4-{[(2-Methyl-2-propanyl)oxy]amino}-3,4-dioxo-1-phenyl-2-butanyl)-2-(3-phenyl-1H-pyrazol-1-yl)nicotinamide] the same measures were 300 to 600 nM, “+++ (+++ means a Ki(cathepsin B)/Ki(calpain) ratio of >10)”, “∘”, “+ (+ means 5≦Ki(cathepsin L)/Ki(calpain)≦10)” and “++ (++ means 10<Ki(cathepsin S)/Ki(calpain)≦50)”.
For the compound `CCONC(=O)C(=O)C(Cc1ccccc1)NC(=O)[C@H]1CCC(=O)N1Cc1ccccc1` (stereo partly drawn) [Example 29, (2R)-1-benzyl-N-(4-(ethoxyamino)-3,4-dioxo-1-phenylbutan-2-yl)-5-oxopyrrolidine-2-carboxamide], the “Calpain activity (Ki(calpain))” value in series [1] is listed as “∘”. Moreover, the “Sel cat. B (Ki(cathepsin B)/Ki(calpain) ratio)” value in series [2] is on record as “+++ (+++ means a Ki(cathepsin B)/Ki(calpain) ratio of >10)”. Moreover, the “Sel cat. K (Ki(cathepsin K)/Ki(calpain) ratio)” value in series [3] is recorded as “++ (++ means 4<Ki(cathepsin K)/Ki(calpain)≦10)”. In series [4], the “Sel cat. L (Ki(cathepsin L)/Ki(calpain) ratio)” value is recorded as “++ (++ means 10<Ki(cathepsin L)/Ki(calpain)≦50)”. In series [5], the “Sel cat. S (Ki(cathepsin S)/Ki(calpain) ratio)” value is “++ (++ means 10<Ki(cathepsin S)/Ki(calpain)≦50)”.
As for `CC(C)(C)CONC(=O)C(=O)C(Cc1ccccc1)NC(=O)c1cccnc1-n1ccc(-c2ccccc2)n1` (centres unmarked) [Example 21, N-{4-[(2,2-Dimethylpropoxy)amino]-3,4-dioxo-1-phenyl-2-butanyl}-2-(3-phenyl-1H-pyrazol-1-yl)nicotinamide], the Ki in series [1] is 200 to 300 nM. Further, in series [2], the “Sel cat. B (Ki(cathepsin B)/Ki(calpain) ratio)” value is on record as “+ (+ means 2≦Ki(cathepsin B)/Ki(calpain)≦4)”. Moreover, the “Sel cat. K (Ki(cathepsin K)/Ki(calpain) ratio)” value in series [3] is given as “∘”. In addition, the “Sel cat. L (Ki(cathepsin L)/Ki(calpain) ratio)” value in series [4] is recorded as “∘”. The “Sel cat. S (Ki(cathepsin S)/Ki(calpain) ratio)” value in series [5] was “+ (+ means 5≦Ki(cathepsin S)/Ki(calpain)≦10)”.
